Each structure is given as a SMILES string. ≈ marks a conversion by molar mass, not a printed value. Calls of active or inactive are those of the source. No cut-off for these calls is given here.

One compound from ChEMBL document CHEMBL5528082 (J Med Chem, 2024) can be followed below.

Data set [1] has as its system Staphylococcus aureus. The data set can be described thus: Antibacterial activity against methicillin-resistant Staphylococcus aureus ATCC 33591 infected in C57 mouse model assessed as reduction in bacterial count at 2 to 10 mg/kg administered once a day for 3 days consecutively and measured after 24 hrs post-last dose by colony counting method. Conditions: dose 2-10 mg/kg, time 4.0 day. It counts as functional, organism-based.

The nature of data set [2]: AUC (0 to t) in Sprague-Dawley rat at 15 mg/kg, po measured for 24 hrs by LC/MS analysis. The data set is classed as ADME, organism-based. The following applies: in vivo.
Data set [3] can be described thus: Acute toxicity in C57 mouse assessed as damage in liver at 800 mg/kg, po measured after 1 week by H and E staining based analysis. The data set is classed as organism-based. The following applies: in vivo, 168 h, time 1 weeks.
Data set [4] has as its system Dihydrofolate reductase (Staphylococcus aureus). Conditions: dose 100.0 nM.
For data set [5], the system named is Staphylococcus aureus. The experiment in a line: Antibacterial activity against TMP-resistant Staphylococcus aureus BHKS 227 incubated for 24 hrs by CLSI based broth microdilution assay. It counts as functional. (In general: In broth dilution the organism is exposed to a series of concentrations in liquid medium.)
In data set [6] the test system is Staphylococcus aureus. The data set can be described thus: Synergistic antibacterial activity against TMP-resistant Staphylococcus aureus BHKS 721 assessed as fractional inhibitory concentration index incubated for 24 hrs in presence of SMX by CLSI based broth microdilution assay. It counts as functional.
The nature of data set [7]: Cmax in Sprague-Dawley rat at 15 mg/kg, po measured for 24 hrs by LC/MS analysis. The data set is classed as ADME, organism-based. The following applies: in vivo.
Data set [8] is described as follows: Cytotoxicity against human NCM460 cells assessed as inhibition rate of cell growth at 100 uM incubated for 24 hrs by CCK8 assay relative to control. It counts as toxicity, cell-based. In general terms: Tetrazolium assays rely on reduction of a dye to a coloured formazan, in cell work by metabolically active cells.
Data set [9] concerns Staphylococcus aureus. The experiment in a line: Antibacterial activity against methicillin-resistant Staphylococcus aureus ATCC 33591 infected in C57 mouse model assessed as decrease in skin abscess at 2 to 10 mg/kg administered once a day for 3 days consecutively and measured after 24 hrs post-last dose. The data set is classed as functional, organism-based. The following applies: dose 2-10 mg/kg, time 4.0 day.

The subject of data set [10] is Staphylococcus aureus. The data set can be described thus: Antibacterial activity against methicillin-resistant Staphylococcus aureus ATCC 33591 infected in C57 mouse model assessed as body weight recovery at 2 to 10 mg/kg administered once a day for 3 days consecutively and measured after 24 hrs post-last dose. It counts as functional, organism-based. The following applies: dose 2-10 mg/kg, time 4.0 day.

Data set [11] deals with Staphylococcus aureus. The data set can be described thus: Antibacterial activity against Staphylococcus aureus USA 300 incubated for 24 hrs by CLSI based broth microdilution assay. The data set is classed as functional.

As a reminder, the AUC(0-t) is the area under the concentration-time curve up to a stated or last time point. Lower therefore signals less exposure. One may read the inhibition as the relative decrease from the control value, in per cent. As a reminder, the MIC is the lowest concentration that inhibits growth of the organism. A lower MIC goes with greater potency. The term Cmax denotes the maximum level reached in the sampled fluid or tissue. For the compound `CC(C)c1cc(OCC2CC2)c(I)cc1Oc1cnc(N)nc1N`, the result in the data set on Staphylococcus aureus [1], with Staphylococcus aureus [9] and in the data set with Staphylococcus aureus [10] was Active. Further, the AUC(0-t) at 24 h in data set [2] amounted to 3920 ng·h/mL. Besides, in [3], the Activity entry is “Non-Toxic”. In data set [4], this compound displayed an inhibition of 47.4%. For the same compound, the results for the MIC against Staphylococcus aureus [5] and in the data set with Staphylococcus aureus [11] were 0.5 µg/mL (≈ 1.14 µM) and 0.031 µg/mL (≈ 0.0704 µM), respectively. Further, the “fractional inhibitory concentration index (FICI)” value in the data set on Staphylococcus aureus [6] is recorded as 0.375. This compound also returned a Cmax in data set [7] of 579 ng/mL. In data set [8], the inhibition at 24 h, 100 µM worked out at 20.2%.
